Assays:
Calu6 tumor model = assay: Calu6 xenograft tumor model (tumor growth, body weight, tumor weight, Ki-67); assay type: in vivo; conditions: Calu6 xenografted mice
Protocol: Xenografted mice were treated with novel antimitotic compounds LXY013, LW33R, and LG157, respectively (FIG. 4A). p-values in FIG. 4A are from Logrank analysis. Tumor growth curves and body weight over the course of the experiments are depicted with vehicle control in black, test compounds in gray (n=6). FIG. 4B is a set of images of tumors and a graph depicting tumor weight at an end-point of 20 days. FIG. 4C is a set of photomicrographs of immunohistochemistry analyses and its quantification, respectively, of Ki-67 expression in xenografts. For LG157, * is p<0.05. p-values in FIG. 4B and FIG. 4C are from multi-parametric analysis. **** is p<0.0001.
Additionally, the volume and weight of tumors in response to the compounds described herein were assessed (FIG. 4A-4B) as well as immunohistochemistry analyses and quantification of Ki-67 expression in xenografts (FIG. 4C).

[1] = system: panel of 98 human cancer cell lines; assay: Concentration-response in panel of 98 human cancer cell lines with MYC/MKLP2 biomarker statistical analysis (AUC, EC50, IC50, Emax, h); assay type: cell-based
Protocol: For passaging of cell lines prior to a […] (MTT) assay, cells were routinely split when reaching mid-log phase and not allowed to progress to confluence. For the determination of cytotoxicity, cells were plated in 96-well plates at 4,000 cells per well in a volume of 100 μL and cultivated for 15 to 24 hours to reach 20-30% confluence. Cells on the plate were then exposed in triplicate to test compounds at concentrations ranging from 0.06 nM to 10 μM by using 3-fold serial dilutions or a concentration range from 5 nM to 10 μM using 2-fold serial dilutions. Cells exposed to vehicle (0.1% DMSO) were used as a negative control. Three days after initiation of the treatment, 20 μL of MTT (stock solution 5 mg/mL) was added to each well before incubation at 37° C. for another 3-4 hours. The medium was then aspirated with a microplate washer (BioTek ELX50) before 50 μL of DMSO was added to each well. After incubation with shaking for 10 minutes, the 96-well plate was analyzed with a microplate reader (BioTek ELX808iu) at a wavelength of 570 nm. The relative cell number was calculated as (A570^Compound/A570^DMSO)×100%. […] Statistical analysis was performed in GraphPad Prism 8.0.2. Error bars were presented as mean±1 standard deviation.
The CellTiter-Glo® (CTG) assay determines levels of ATP, and therefore the metabolic health of cell grown in culture. […] Wells containing medium without cells were used as a baseline control to obtain a value for background luminescence. […] 150 μL of the mixture was transferred to a white 96-well microplate (Falcon, Cat. #353296) and the luminescence signal was recorded by a microplate reader (Tecan Spark).
To develop a comparative metric reflecting the level of MYC and/or MKLP2 in a given cell line, the signal intensity of the MYC and MKLP2 protein bands from immunoblot analysis were normalized to the intensity of the housekeeping protein β-ACTIN. […] Whole cell MYC and MKLP2 proteins were quantified in a panel of 98 human cancer cell lines, see Table 4, below. […]

RPE-NEO = assay: Model cell screen: CPPC complex localization and cell death, RPE-NEO; assay type: cell-based, human
Protocol: In the model screening cell lines, there was an indistinguishable threshold concentration of approximately 20 nM, which was required to show disruption of the CPPC complex by IHC at the spindle midzone and equatorial cortex of anaphase cells, indicating a failure in CPPC relocation. This similarity in the threshold effective concentration for target inhibition is, therefore, not influenced by overexpression of MYC. […] Similar data with other MYC-SL compounds were observed.

CNC(=O)c1cc(OC)cc(Oc2ncccc2-c2ccnc(C)c2)c1 [LG157]
tumor growth (Calu6 tumor model): inhibition of tumor growth
association of oncogenic alterations (TP53, RB, PTEN, RAS, BRAF, PI3K) with response ([1]; 89 of the 98 cell lines): no evidence was found that these alterations were associated with either sensitivity or resistance
relation of MKLP2 protein level to response ([1]; 98 cell lines): lower protein levels of MKLP2, but not high, predicted a favorable response
relation of MYC abundance to sensitivity ([1]; 98 cell lines): the abundance of MYC in the human cancer cell lines positively relates to sensitivity
cell death (RPE-NEO): not RPE-NEO cells
threshold concentration required to show disruption of the CPPC complex (RPE-NEO; IHC at spindle midzone and equatorial cortex of anaphase cells): approximately 20 nM

Reference: patent US20260009085A1, “METHODS AND COMPOSITIONS FOR THE DIAGNOSIS AND TREATMENT OF CANCER” (Chengdu Anticancer Bioscience, Ltd., priority 2023, published 2026)
